± gives the standard deviation of the averaged measurements.
Legend:
[1] = compound: Cn1cc(C2=Nc3cc(NC(=O)C(N)C4CCCCC4)cc4c3C2=CNNC4=O)cn1; assay: area under dose-response curve of surviving fraction (unscaled, Aref=0) (surviving fraction x log10(nM)); higher = more resistant; details: exposure time: 5 days; dose range 0.5-1000 nM
Procedure, shortened: (§1)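 Each tumour cell line was screened three times in 384-well plates, receiving eight inhibitor concentrations from 0.5 to 1000 nM for five days. CellTiter-Glo luminescence gave viability, normalised to DMSO-only wells. Using the drc R package, surviving fractions were fitted with 3-parameter logistic dose-response curves, and the unscaled activity area over log10 dose (Aref = 0) was taken as the area under the curve.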

[2] = compound: T1, CN(C)C/C=C/C(=O)Nc1cc2c(Nc3ccc(F)c(Cl)c3)ncnc2cc1O[C@H]1CCOC1 [AFATINIB]; assay: as above; details: exposure time: 5 days; dose range 0.5-1000 nM
Procedure, shortened: as §1

[3] = compound: T2, Nc1nc2[nH]cnc2c(=S)[nH]1 [TIOGUANINE]; assay: as above; details: exposure time: 5 days; dose range 0.5-1000 nM
Procedure, shortened: as §1

[4] = compound: T3, C=CC(=O)Nc1cc2c(Nc3ccc(F)c(Cl)c3)ncnc2cc1OCCCN1CCOCC1 [CANERTINIB]; assay: as above; details: exposure time: 5 days; dose range 0.5-1000 nM
Procedure, shortened: as §1

[5] = compound: T4, CC1(C)CC(=O)c2c(C(F)(F)F)nn(-c3ccc(C(N)=O)c(N[C@H]4CC[C@H](OC(=O)CN)CC4)c3)c2C1 [SNX-5422]; assay: as above; details: exposure time: 5 days; dose range 0.5-1000 nM
Procedure, shortened: as §1

[6] = compound: T5, CCCCCCCCCCCCCCCC(=O)Nc1ccn([C@@H]2O[C@H](CO)[C@@H](O)[C@@H]2C#N)c(=O)n1 [SAPACITABINE]; assay: as above; details: exposure time: 5 days; dose range 0.5-1000 nM
Procedure, shortened: as §1

[7] = compound: T6, CC[C@@H]1C(=O)N(C)c2cnc(Nc3ccc(C(=O)NC4CCN(C)CC4)cc3OC)nc2N1C1CCCC1 [BI-2536]; assay: as above; details: exposure time: 5 days; dose range 0.5-1000 nM
Procedure, shortened: as §1

[8] = compound: T7, CNC(=O)c1ccc(N2C(=S)N(c3ccc(C#N)c(C(F)(F)F)c3)C(=O)C2(C)C)cc1F [MDV3100]; assay: as above; details: exposure time: 5 days; dose range 0.5-1000 nM
Procedure, shortened: as §1

[9] = compound: Cn1cc(C2=Nc3cc(NC(=O)C(N)C4CCCCC4)cc4c3C2=CNNC4=O)cn1; assay: surviving fraction relative to DMSO-only wells; higher = less growth inhibition; details: exposure time: 5 days
Procedure, shortened: (§2)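 At 250–500 cells per well in 384-well plates, log-phase tumour cell lines were seeded and, 24 hours on, exposed continuously for five days to inhibitors at 0.5, 1, 5, 10, 50, 100, 500 and 1000 nM. Viability readout was CellTiter-Glo luminescence, reported as surviving fraction normalised to the median of DMSO-only wells.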

[10] = compound: T1, AFATINIB; assay: as above; details: exposure time: 5 days
Procedure, shortened: as §2

[11] = compound: T2, TIOGUANINE; assay: as above; details: exposure time: 5 days
Procedure, shortened: as §2

[12] = compound: T3, CANERTINIB; assay: as above; details: exposure time: 5 days
Procedure, shortened: as §2

[13] = compound: T4, SNX-5422; assay: as above; details: exposure time: 5 days
Procedure, shortened: as §2

[14] = compound: T5, SAPACITABINE; assay: as above; details: exposure time: 5 days
Procedure, shortened: as §2

[15] = compound: T6, BI-2536; assay: as above; details: exposure time: 5 days
Procedure, shortened: as §2

[16] = compound: T7, MDV3100; assay: as above; details: exposure time: 5 days
Procedure, shortened: as §2

Q: What does the source list for BT549 BREAST?
A: area under dose-response curve [1]: 2.19; area under dose-response curve [2]: 3.09; area under dose-response curve [3]: 3.29; area under dose-response curve [4]: 2.74; area under dose-response curve [5]: 1.94; area under dose-response curve [6]: 1.85; area under dose-response curve [7]: 0.891; area under dose-response curve [8]: 3.26; surviving fraction ([9]; 0.5 nM): 1.07 ± 0.11; surviving fraction ([9]; 1 nM): 0.943 ± 0.079; surviving fraction ([9]; 5 nM): 0.957 ± 0.21; surviving fraction ([9]; 10 nM): 1.05 ± 0.14; surviving fraction ([9]; 50 nM): 0.659 ± 0.073; surviving fraction ([9]; 100 nM): 0.371 ± 0.012; surviving fraction ([9]; 500 nM): 0.0533 ± 0.008; surviving fraction ([9]; 1000 nM): 0.027 ± 0.006; surviving fraction ([10]; 0.5 nM): 1.08 ± 0.1; surviving fraction ([10]; 1 nM): 1.12 ± 0.072; surviving fraction ([10]; 5 nM): 1.11 ± 0.11; surviving fraction ([10]; 10 nM): 1.07 ± 0.2; surviving fraction ([10]; 50 nM): 0.919 ± 0.15; surviving fraction ([10]; 100 nM): 1.09 ± 0.066; surviving fraction ([10]; 500 nM): 0.696 ± 0.15; surviving fraction ([10]; 1000 nM): 0.278 ± 0.082; surviving fraction ([11]; 0.5 nM): 1.04 ± 0.17; surviving fraction ([11]; 1 nM): 1.05 ± 0.22; surviving fraction ([11]; 5 nM): 1.09 ± 0.12; surviving fraction ([11]; 10 nM): 1.12 ± 0.11; surviving fraction ([11]; 50 nM): 1.17 ± 0.14; surviving fraction ([11]; 100 nM): 0.917 ± 0.35; surviving fraction ([11]; 500 nM): 0.86 ± 0.42; surviving fraction ([11]; 1000 nM): 0.996 ± 0.24; surviving fraction ([12]; 0.5 nM): 0.752 ± 0.037; surviving fraction ([12]; 1 nM): 0.886 ± 0.18; surviving fraction ([12]; 5 nM): 0.832 ± 0.08; surviving fraction ([12]; 10 nM): 0.808 ± 0.042; surviving fraction ([12]; 50 nM): 0.937 ± 0.18; surviving fraction ([12]; 100 nM): 1.08 ± 0.052; surviving fraction ([12]; 500 nM): 0.811 ± 0.072; surviving fraction ([12]; 1000 nM): 0.47 ± 0.058; surviving fraction ([13]; 0.5 nM): 1.1 ± 0.22; surviving fraction ([13]; 1 nM): 0.861 ± 0.11; surviving fraction ([13]; 5 nM): 1.19 ± 0.077; surviving fraction ([13]; 10 nM): 1.05 ± 0.11; surviving fraction ([13]; 50 nM): 0.216 ± 0.02; surviving fraction ([13]; 100 nM): 0.187 ± 0.059; surviving fraction ([13]; 500 nM): 0.0503 ± 0.011; surviving fraction ([13]; 1000 nM): 0.0473 ± 0.0074; surviving fraction ([14]; 0.5 nM): 0.831 ± 0.065; surviving fraction ([14]; 1 nM): 0.869 ± 0.068; surviving fraction ([14]; 5 nM): 0.809 ± 0.027; surviving fraction ([14]; 10 nM): 0.695 ± 0.026; surviving fraction ([14]; 50 nM): 0.508 ± 0.022; surviving fraction ([14]; 100 nM): 0.367 ± 0.029; surviving fraction ([14]; 500 nM): 0.16 ± 0.044; surviving fraction ([14]; 1000 nM): 0.125 ± 0.034; surviving fraction ([15]; 0.5 nM): 0.905 ± 0.14; surviving fraction ([15]; 1 nM): 0.923 ± 0.052; surviving fraction ([15]; 5 nM): 0.229 ± 0.021; surviving fraction ([15]; 10 nM): 0.132 ± 0.038; surviving fraction ([15]; 50 nM): 0.0863 ± 0.0081; surviving fraction ([15]; 100 nM): 0.0867 ± 0.011; surviving fraction ([15]; 500 nM): 0.0667 ± 0.011; surviving fraction ([15]; 1000 nM): 0.0373 ± 0.0093; surviving fraction ([16]; 0.5 nM): 0.957 ± 0.078; surviving fraction ([16]; 1 nM): 1.02 ± 0.089; surviving fraction ([16]; 5 nM): 1 ± 0.11; surviving fraction ([16]; 10 nM): 0.939 ± 0.0099; surviving fraction ([16]; 50 nM): 1.01 ± 0.036; surviving fraction ([16]; 100 nM): 0.996 ± 0.099; surviving fraction ([16]; 500 nM): 0.992 ± 0.076; surviving fraction ([16]; 1000 nM): 0.98 ± 0.057
